Data published in patent US10244756B2, “Fungicidal N-cycloalkyl-N-{[ortho-(1-substituted-cycloalkyl)heteroaryl]methyl}(thio)carboxamides” (Bayer CropScience Aktiengesellschaft, priority 2015, dated 2019).

Columns and labels:
Uromyces appendiculatus = test: In vivo preventive test on Uromyces appendiculatus (bean rust); conditions: Table B2, dose 100 ppm, evaluated 11 days after inoculation
Procedure: (§1) Example B: In Vivo Preventive Test on Uromyces Appendiculatus (Bean Rust) Solvent: 5% by volume of Dimethyl sulfoxide • 10% by volume of Acetone Emulsifier: 1 μL of Tween® 80 per mg of active ingredient The active ingredients are made soluble and homogenized in a mixture of Dimethyl sulfoxide/Acetone/Tween® 80 and then diluted in water to the desired concentration. The young plants of bean are treated by spraying the active ingredient prepared as described above. Control plants are treated only with an aqueous solution of Acetone/Dimethyl sulfoxide/Tween® 80. After 24 hours, the plants are contaminated by spraying the leaves with an aqueous suspension of Uromyces appendiculatus spores. The contaminated bean plants are incubated for 24 hours at 20° C. and at 100% relative humidity and then for 10 days at 20° C. and at 70-80% relative humidity. The test is evaluated 11 days after the inoculation. 0% means an efficacy which corresponds to that of the control plants while an efficacy of 100% means that no disease is observed.

Puccinia recondita = test: In vivo preventive test on Puccinia recondita (brown rust on wheat); conditions: Table A2, dose 100 ppm, evaluated 11 days after inoculation
Procedure: as §1, with “A:” for “B:”, “Puccinia Recondita (Brown Rust on Wheat)” for “Uromyces Appendiculatus (Bean Rust)”, “wheat” for “bean”, “Puccinia recondita” for “Uromyces appendiculatus”

[1] = logP by HPLC on reversed-phase column (C 18), EEC Directive 79/831 Annex V.A8; assay type: physicochemical; conditions: reversed-phase HPLC column (C 18), 40° C., 0.1% aqueous formic acid and acetonitrile, gradient 10% to 90% acetonitrile
Procedure: In table 1, the logP values were determined in accordance with EEC Directive 79/831 Annex V.A8 by HPLC (High Performance Liquid Chromatography) on a reversed-phase column (C 18), using the method described below: Temperature: 40° C.; Mobile phases: 0.1% aqueous formic acid and acetonitrile; linear gradient from 10% acetonitrile to 90% acetonitrile. Calibration was carried out using unbranched alkan-2-ones (comprising 3 to 16 carbon atoms) with known logP values (determination of the logP values by the retention times using linear interpolation between two successive alkanones). lambda-max-values were determined using UV-spectra from 200 nm to 400 nm and the peak values of the chromatographic signals.

Row | Structure (SMILES) | Efficacy (Uromyces appendiculatus) | Efficacy (Puccinia recondita) | chromatographic logP [1]
1 | CC(C)c1ncc(Cl)cc1CN(C(=O)c1cn(C)nc1C(F)F)C1CC1 [CMP1, N-[(5-chloro-2-isopropylpyridin-3-yl)methyl]-N-cyclopropyl-3-(difluoromethyl)-1-methyl-1H-pyrazole-4-carboxamide] | 0% | 0% | 
2 | Cc1cc(C2(Cl)CC2)c(CN(C(=O)c2cn(C)nc2C(F)F)C2CC2)s1 [Example I.05, N-{[3-(1-chlorocyclopropyl)-5-methyl-2-thienyl]methyl}-N-cyclopropyl-3-(difluoromethyl)-1-methyl-1H-pyrazole-4-carboxamide] |  |  | 3.39
